From US7589077B2, “Antiviral nucleosides” (priority 2001, dated 2009)
Where two headings read alike, the source gives them in different places.

Tests used:
[1] = tested on: VZV (Ellen); test: CPE inhibition assay VZV (Ellen) in HFF cells; assay type: cell-based, varicella zoster virus
Protocol: (§1) Cytopathic effect (CPE) inhibition assays for HSV-1, HSV-2, HCMV and VZV were performed as follows: Low passage human foreskin fibroblasts (HFF) cells were seeded into 96 well tissue culture plates 24 h prior to use at a cell concentration of 2.5×10^4 cells per mL in 0.1 mL of minimal essential medium (MEM) supplemented with 10% fetal bovine serum (FBS). The cells were then incubated for 24 h at 37° C. in a CO2 incubator. After incubation, the medium was removed and 100 μL of MEM containing 2% FBS was added to all but the first row. In the first row, 125 μL of experimental drug was added in triplicate wells. Medium alone was added to both cell and virus control […]. After incubation, the medium was removed and 100 μl of MEM containing 2% FBS was added to all but the first row. Medium alone was added to both cell and virus control wells. 125 μl of Experimental drug was added in triplicate wells. The drug in the first row of wells was then diluted serially 1:5 throughout the remaining wells by transferring 25 μL using the Cetus Liquid Handling Machine. After dilution of drugs, 100 μL of the appropriate virus concentration was added to each well, excluding the cell control wells which received 100 μL of MEM. For HSY-1 and HSV-2 assays, the virus concentration utilized was 1000 PFU's per well. For CMV and VZV assays, the virus concentration added was 2500 PFU's per well. The plates were then incubated at 37° C. in a CO2 incubator for 3 days for HSV-1 and HSV-2, 10 days for VZV, or 14 days for CMV. After the incubation period, media was aspirated and the cells stained with a 0.1% crystal violet solution for 30 min. The stain was then removed and the plates were allowed to dry 24 h and then read on a Skatron Plate Reader at 620 nm.

[2] = tested on: Epstein-Barr Virus (EBV); test: EBV immunofluorescence assay in DAUDI cells (P3HR-1 strain); assay type: cell-based
Protocol: The immunofluorescence assay, using monoclonal antibodies, for Epstein-Barr Virus (EBV) was performed as follows: DAUDI cells were infected with the P3HR-1 strain of EBV and the test drug was added after adsorption (45 min. at 37° C.) and washing of the cell cultures. These cultures were then incubated for 2 days in complete medium to allow viral gene expression. Following the 48 h incubation period, the number of cells in each sample were counted and smears were made. Monoclonal antibodies to the different early antigen (EA) components and VCA were than added to the cells, incubated and washed. This was followed by the addition of a fluorescein conjugated rabbit anti mouse Ig antibodies. The number of fluorescence positive cells in the smears were counted and the total number of cells in the cultures positive for EA or VCA were then calculated and compared.

[3] = tested on: HFF cells; test: Cell viability in HFF cells (neutral red); assay type: cell-based, human
Protocol: Twenty-four hours prior to assay HFF cells were plated into 96 well plates at a concentration of 2.5×10^4 cells per well. […] The plates were incubated for 7 days in a CO2 incubator at 37° C. At this time the media/drug was aspirated and 200 μL/well of 0.01% neutral red in Dulbecco's Phosphate Buffered Saline (DPBS) was added. This was incubated in the CO2 incubator for 2 h, the dye was aspirated and the cells were washed using a Nunc Plate Washer. After removing the DPBS wash, […] of 50% EtOH: 1% glacial acetic acid in water was added. The plates were rotated for 15 min. and the optical densities were read at 550 nm on a plate reader.

[4] = tested on: CEM cells; test: Cell cytotoxicity in CEM cells; assay type: cell-based; settings: Table 3a
[5] = tested on: human HBV; test: HBV DNA replication in HepG2 2.2.15 cells; assay type: cell-based, hepatitis B virus; settings: Table 3a; read-out: % Inhibition of human HBV DNA replication in HepG2 2.2.15 cells EC50
Protocol: The compounds were assayed for a) their ability to inhibit DHBV DNA replication in duck hepatocytes, b) their ability to inhibit HBV DNA replication in HepG2 2.2.15 cells, c) the cell cytotoxicity in Vero cells, the cell viability in HFF cells, d) the cell proliferation in HFF cells, and e) the T cell proliferation (purified T cells, PHA stimulated). 3-TC was used as a control. Additional compounds described below in the Preparative Examples section were also tested, and the results are shown in Tables 2-4 below. The reference numbers for the compounds are found in the Preparative Examples.

[6] = tested on: duck hepatitis B virus (DHBV); test: DHBV DNA replication in primary duck hepatocytes (dot blot hybridization); assay type: cell-based
Protocol: A series of compounds were synthesized and assayed for activity against duck hepatitis B virus (DHBV). […] Test compounds were added to the hepatocyte cultures on day 2 and maintained in culture with media changed every second day until day 12. Cell were harvested at day 14 and lysed with buffer containing 1% SDS. DNA was isolated from the lysate and dot blot hybridization was performed using a DHBV (32P) DNA probe. […]
(§2) The compounds were assayed for a) their ability to inhibit DHBV DNA replication in duck hepatocytes, b) their ability to inhibit HBV DNA replication in HepG2 2.2.15 cells, c) the cell cytotoxicity in Vero cells, the cell viability in HFF cells, d) the cell proliferation in HFF cells, and e) the T cell proliferation (purified T cells, PHA stimulated). 3-TC was used as a control.

[7] = tested on: HSV-2 (MS); test: CPE inhibition assay HSV-2 (MS) in HFF cells; assay type: cell-based, Herpes simplex virus type-2; settings: Table 4
Protocol: as §1

[8] = tested on: HCMV (AD169); test: CPE inhibition assay HCMV (AD169) in HFF cells; assay type: cell-based, human cytomegalovirus; settings: Table 4
Protocol: as §1

[9] = tested on: HSV-1 (KOSSB) HSV-TK−; test: microbe, parasite or virus in culture; assay type: cell-based, Herpes simplex virus type-1; settings: Table 4
Protocol: as §1, with “The” for “Cytopathic effect (CPE) inhibition assays for HSV-1, HSV-2, HCMV and VZV were performed as follows: Low passage human foreskin fibroblasts (HFF) cells were seeded into 96 well tissue culture plates 24 h prior to use at a cell concentration of 2.5×10^4 cells per mL in 0.1 mL of minimal essential medium (MEM) supplemented with 10% fetal bovine serum (FBS). The”

[10] = tested on: HSV-1 (KOS) HSV-TK+; test: HSV-1 (KOS) HSV-TK+ antiviral assay; assay type: cell-based, Herpes simplex virus type-1; settings: Table 4
Protocol: as §1

[11] = tested on: HSV-1 (E-377); test: CPE inhibition assay HSV-1 (E-377) in HFF cells; assay type: cell-based, Herpes simplex virus type-1; settings: Table 4
Protocol: as §1

[12] = tested on: Vero cells; test: Cell cytotoxicity in Vero cells; assay type: cell-based; settings: Table 1
Protocol: as §2

[13] = tested on: whole human PBLs; test: Cell proliferation, whole human PBLs; assay type: cell-based; settings: Table 1

Compound	VZV (Ellen) EC50 ([1]; Table 3a) [µg/mL]	EBV EC50 ([2]; Table 3a) [µg/mL]	EBV EC90 ([2]; Table 3a, in parentheses) [µg/mL]	CC50 ([3]; Table 3a, read-out: Cell viability HFF cells CC50) [µM]	CC50 [4] [µM]	EC50 [5] [µM]	% Inhibition of DHBV DNA replication in duck hepatocytes @10 μg/ml [6] [%]	HSV-2 (MS) EC50 [7] [µg/mL]	HCMV (AD-169) EC50 [8] [µg/mL]	HSV-1 (KOSSB) HSV-TK− EC50 [9] [µg/mL]	VZV (Ellen) EC50 ([1]; Table 4) [µg/mL]	EBV EC50 ([2]; Table 4) [µg/mL]	CC50 ([3]; Table 1, read-out: Cell viability, HFF cells, CC50 μM) [µM]	HSV-1 (KOS) HSV-TK+ EC50 [10] [µg/mL]	HSV-1 (E-377) EC50, μg/ml [11] [μg/ml]	CC50 [12] [µM]	IC50 [13] [µM]	EC50 (DHBV DNA replication in duck hepatocytes) ([6]; Table 1)
CCO[C@@H]1C(Cl)C(=O)NC(=O)N1[C@H]1C[C@H](F)[C@@H](CO)O1 (single isomer, unassigned; (+)) [RB-2]	0.3	0.15 to 0.3	9.8	> 330	> 200	2.8												
(5R,6R)5-fluoro-O^6-5′-cyclo-5,6-dihydro-3′-azido-3′-deoxythymidine [Compound R-14]							81.0	>100	>100	>50	>100	<0.08	> 350	>25	>100	100 to 200	> 350	
(5S,6S)-5-bromo-O^6-5′-cyclo-5,6-dihydro-3′-azido-3′-deoxythymidine [Compound R-1]								20	20	1 to 10	>100	1.4		10 to 25	20		34	(EC50 = 0.035 μg/ml
